Like-named read-outs stand apart in the source and are kept apart here.
What was measured:
[1] = test system: platelet aggregation (PAF); test: Inhibitory action on PAF-induced rabbit platelet aggregation; type: cell-based; conditions: Oryctolagus cuniculus, read-out: inhibitory percentage (platelet aggregation); for inhibition at 3 µM: 3 × 10^-6 M; for inhibition at 0.3 µM: 3 × 10^-7 M; for inhibition at 0.03 µM: 3 × 10^-8 M
Description: Blood was collected directly from the hearts of male rabbits using a syringe containing, as an anticoagulant, 3.15% citric acid (one part to 9 parts of blood). The blood was subjected to centrifuge at 800 rpm for ten minutes at room temperature to obtain platelet rich plasma (PRP). The remaining blood was further subjected to centrifuge at 3000 rpm for ten minnutes to separate platelet poor plasma (PPP) as the supernatant. PRP was diluted with PPP, and the number of platelets was adjusted to about 500,000/ μl. This PRP(250 μl) was stirred for two minutes at 37° C., and there was added a test sample, and the mixture was stirred for further two minutes, followed by addition of PAF of a given concentration. Platelet aggregation was examined by means of a platelet-agglutometer (manufactured by Rika Denki). Platelet aggregation preventing action of the test sample was determined based on the maximum percent light transmission (maximum percent. agglutination).

PAF-induced hypotension = test: Inhibitory action on PAF-induced hypotension in rats; type: in vivo, rat (Sprague-Dawley); conditions: Rattus norvegicus, read-out: Inhibitory Rate (Lowering of Blood Pressure); for inhibition in vivo at 0.01 mg/kg / inhibition in vivo at 0.03 mg/kg / inhibition in vivo at 0.1 mg/kg: iv; for inhibition in vivo at 3 mg/kg / inhibition in vivo at 10 mg/kg / inhibition in vivo at 30 mg/kg / inhibition in vivo at 1 mg/kg: oral
Description: Sprague-Dawley male rats, each weighing about 250 g, were subjected to the experiment. The rats were cannulated on the side of femoral artery for measuring the blood pressure, and on the side of femoral vein for administering the drug. The blood pressure was measured through a pressure transducer and recorded. First, PAF (1 μg/kg) was administered intravenously (i.v.) to examine the extent of lowering of blood pressure. Then, the test samples were administered intravenously or orally. […]
The inhibitory action on PAF-induced hypotension (% inhibition) is indicated as the ratio of blood pressure-lowering degree (Δ mmHg) induced by PAF after administration of test samples relative to blood pressure-lowering degree (Δ mmHg) induced by PAF before administration of test samples.

## CCCCCCCCCCCCCCCCCCNC(=O)OCC(COC(=O)NCCN(C)C(=O)c1ccc[n+](CC)c1)OC (stereo not drawn) [Production Example 1, 3-[N-[2-(2-methoxy-3-octadecylcarbamoyloxypropoxycarbonyl)]aminoethyl-N-methyl]carbamoyl-1-ethylpyridinium iodide]
[1]
  inhibition at 3 µM: 100%
  inhibition at 0.3 µM: 100%
  inhibition at 0.03 µM: 9%

## CC[n+]1cc(Br)cc(C(=O)N(CCOC(=O)NCCOc2cccc3ccccc23)c2ccccc2)c1 [Production Example 6, 5-bromo-3-[N-[2-[2-(1-naphthyloxy)ethyl]carbamoyloxy]ethyl-N-phenyl]carbamoyl-1-ethylpyridinium iodide]
[1]
  inhibition at 3 µM: 100%
  inhibition at 0.3 µM: 100%
  inhibition at 0.03 µM: 34%

## CCC[n+]1cc(Br)cc(C(=O)N(CCOC(=O)NCCOc2cccc3ccccc23)c2ccccc2)c1 [Production Example 7, 5-bromo-3-[N-[2-[2-(1-naphthyloxy)ethyl]carbamoyloxy]ethyl-N-phenyl]carbamoyl-1-propylpyridinium iodide]
[1]
  inhibition at 3 µM: 100%
  inhibition at 0.3 µM: 100%
  inhibition at 0.03 µM: 18%
PAF-induced hypotension; 1 hr.
  inhibition in vivo at 0.01 mg/kg: 59%
  inhibition in vivo at 0.03 mg/kg: 84%
  inhibition in vivo at 0.1 mg/kg: 100%
  inhibition in vivo at 3 mg/kg: 36%
  inhibition in vivo at 10 mg/kg: 100%
  inhibition in vivo at 30 mg/kg: 100%
PAF-induced hypotension; 2 hr.
  inhibition in vivo at 0.01 mg/kg: 48%
  inhibition in vivo at 0.03 mg/kg: 81%
  inhibition in vivo at 0.1 mg/kg: 91%
  inhibition in vivo at 3 mg/kg: 59%
  inhibition in vivo at 10 mg/kg: 97%
  inhibition in vivo at 30 mg/kg: 100%
PAF-induced hypotension; 4 hr.
  inhibition in vivo at 0.01 mg/kg: 45%
  inhibition in vivo at 0.03 mg/kg: 68%
  inhibition in vivo at 0.1 mg/kg: 76%
  inhibition in vivo at 3 mg/kg: 63%
  inhibition in vivo at 10 mg/kg: 92%
  inhibition in vivo at 30 mg/kg: 97%
PAF-induced hypotension; 6 hr.
  inhibition in vivo at 0.01 mg/kg: 40%
  inhibition in vivo at 0.03 mg/kg: 57%
  inhibition in vivo at 0.1 mg/kg: 63%
  inhibition in vivo at 3 mg/kg: 59%
  inhibition in vivo at 10 mg/kg: 84%
  inhibition in vivo at 30 mg/kg: 89%
PAF-induced hypotension; 8 hr.
  inhibition in vivo at 0.01 mg/kg: 35%
  inhibition in vivo at 0.03 mg/kg: 51%
  inhibition in vivo at 0.1 mg/kg: 58%
  inhibition in vivo at 3 mg/kg: 41%
  inhibition in vivo at 10 mg/kg: 78%
  inhibition in vivo at 30 mg/kg: 86%
PAF-induced hypotension; 5 min, i.v., 5 min.
  inhibition in vivo at 0.01 mg/kg: 76%
  inhibition in vivo at 0.03 mg/kg: 100%
  inhibition in vivo at 0.1 mg/kg: 100%

## CCN(CCOC(=O)NCCOc1cccc2ccccc12)C(=O)c1cc(Br)c[n+](CC)c1 [Production Example 15, 5-bromo-1-ethyl-3-[N-ethyl-N-[2-[2-(1-naphthyloxy)ethyl]carbamoyloxy]ethyl]carbamoylpyridinium iodide]
[1]
  inhibition at 3 µM: 100%
  inhibition at 0.3 µM: 100%
  inhibition at 0.03 µM: 22%

## CCCCN(CCOC(=O)NCCOc1cccc2ccccc12)C(=O)c1cc(Br)c[n+](CC)c1 [Production Example 19, 5-bromo-1-ethyl-3-[N-butyl-N-[2-[2-(1-naphthyloxy)ethyl]carbamoyloxy]ethyl]carbamoylpyridinium iodide]
[1]
  inhibition at 3 µM: 100%
  inhibition at 0.3 µM: 100%
  inhibition at 0.03 µM: 42%

## CCC[n+]1cc(Br)cc(C(=O)N(CCOC(=O)NCCOC(=O)Nc2cccc3ccccc23)c2ccc(Cl)cc2)c1 [Production Example 22, 5-bromo-3-[N-(4-chlorophenyl)-N-[2-[2-(1-naphthylcarbamoyloxy)ethyl]carbamoyloxy]ethyl]carbamoyl-1-propylpyridinium chloride]
[1]
  inhibition at 3 µM: 100%
  inhibition at 0.3 µM: 100%
  inhibition at 0.03 µM: 11%

## CCC[n+]1cc(Br)cc(C(=O)N(CCOC(=O)NCCOC(=O)Nc2cccc3ccccc23)c2ccc(I)cc2)c1 [Production Example 25, 5-bromo-3-[N-(4-iodophenyl)-N-[2-[2-(1-naphthylcarbamoyloxy)ethyl]carbamoyloxy]ethyl]carbamoyl-1-propylpyridinium chloride]
[1]
  inhibition at 3 µM: 100%
  inhibition at 0.3 µM: 100%
  inhibition at 0.03 µM: 18%

## CCC[n+]1cc(Br)cc(C(=O)N(CCOC(=O)NCCOC(=O)Nc2cccc3ccccc23)c2cc(OC)c(OC)c(OC)c2)c1 [Production Example 27, 5-bromo-3-[N-[2-[2-(1-naphthylcarbamoyloxy)ethyl]carbamoyloxy]ethyl-N-(3,4,5-trimethoxyphenyl)]carbamoyl-1-propylpyridinium chloride]
[1]
  inhibition at 3 µM: 100%
  inhibition at 0.3 µM: 100%
  inhibition at 0.03 µM: 3%

## CCC[n+]1cc(Br)cc(C(=O)N(CCOC(=O)NCCOC(=O)Nc2cccc3ccccc23)c2cccc(Cl)c2)c1 [Production Example 44, 5-bromo-3-[N-(3-chlorophenyl)-N-[2-[2-(1-naphthylcarbamoyloxy)ethyl]carbamoyloxy]ethyl]carbamoyl-1-propylpyridinium chloride]
[1]
  inhibition at 3 µM: 100%
  inhibition at 0.3 µM: 100%
  inhibition at 0.03 µM: 27%
PAF-induced hypotension; 1 hr.
  inhibition in vivo at 0.01 mg/kg: 58%
  inhibition in vivo at 0.03 mg/kg: 81%
  inhibition in vivo at 1 mg/kg: 62%
  inhibition in vivo at 3 mg/kg: 77%
PAF-induced hypotension; 2 hr.
  inhibition in vivo at 0.01 mg/kg: 54%
  inhibition in vivo at 0.03 mg/kg: 71%
  inhibition in vivo at 1 mg/kg: 74%
  inhibition in vivo at 3 mg/kg: 84%
PAF-induced hypotension; 4 hr.
  inhibition in vivo at 0.01 mg/kg: 47%
  inhibition in vivo at 0.03 mg/kg: 64%
  inhibition in vivo at 1 mg/kg: 73%
  inhibition in vivo at 3 mg/kg: 97%
PAF-induced hypotension; 6 hr.
  inhibition in vivo at 0.01 mg/kg: 41%
  inhibition in vivo at 0.03 mg/kg: 59%
  inhibition in vivo at 1 mg/kg: 68%
  inhibition in vivo at 3 mg/kg: 94%
PAF-induced hypotension; 8 hr.
  inhibition in vivo at 0.03 mg/kg: 39%
  inhibition in vivo at 1 mg/kg: 61%
  inhibition in vivo at 3 mg/kg: 92%
PAF-induced hypotension; 5 min, i.v., 5 min.
  inhibition in vivo at 0.01 mg/kg: 68%
  inhibition in vivo at 0.03 mg/kg: 97%
